According to the kinase profiling compilation of Christmann-Franck et al. (2016):

Assays:
Test in all cases: SelectScreen, TR FRET
[1] = target: ACVR1B (human) (UniProt P36896)
[2] = target: BRAF (human) (UniProt P15056)
[3] = target: CAMK4 (human) (UniProt Q16566)
[4] = target: CDK2 CCNA2 (human) (UniProt P24941+P20248)
[5] = target: CDK5 CDK5R1 p25 (human) (UniProt Q15078+Q00535)
[6] = target: CDK7 CCNH MNAT1 (human) (UniProt P50613+P51948+P51946)
[7] = target: CDK9 CCNT1 (human) (UniProt O60563+P50750)
[8] = target: CHEK2 (human) (UniProt O96017)
[9] = target: CLK2 (human) (UniProt P49760)
[10] = target: CSNK1A1 (human) (UniProt P48729)
[11] = target: FLT3 (human) (UniProt P36888)
[12] = target: GRK4 (human) (UniProt P32298)
[13] = target: GSK3B (human) (UniProt P49841)
[14] = target: IGF1R (human) (UniProt P08069)
[15] = target: IKBKE (human) (UniProt Q14164)
[16] = target: IRAK4 (human) (UniProt Q9NWZ3)
[17] = target: JAK1 JH1 JH2 (human) (UniProt P23458)
[18] = target: LRRK2 (human) (UniProt Q5S007)
[19] = target: MAPK1 (human) (UniProt P28482)
[20] = target: NEK2 (human) (UniProt P51955)
[21] = target: PDPK1 (human) (UniProt O15530)
[22] = target: PKN1 (human) (UniProt Q16512)
[23] = target: PRKG2 (human) (UniProt Q13237)
[24] = target: RPS6KA3 KD1 KD2 (human) (UniProt P51812)
[25] = target: SRPK1 (human) (UniProt Q96SB4)
[26] = target: TAOK2 (human) (UniProt Q9UL54)
[27] = target: TSSK1B (human) (UniProt Q9BXA7)
[28] = target: ZAP70 (human) (UniProt P43403)
ZAP70 (human), sequence (P43403 whole entry, looked up): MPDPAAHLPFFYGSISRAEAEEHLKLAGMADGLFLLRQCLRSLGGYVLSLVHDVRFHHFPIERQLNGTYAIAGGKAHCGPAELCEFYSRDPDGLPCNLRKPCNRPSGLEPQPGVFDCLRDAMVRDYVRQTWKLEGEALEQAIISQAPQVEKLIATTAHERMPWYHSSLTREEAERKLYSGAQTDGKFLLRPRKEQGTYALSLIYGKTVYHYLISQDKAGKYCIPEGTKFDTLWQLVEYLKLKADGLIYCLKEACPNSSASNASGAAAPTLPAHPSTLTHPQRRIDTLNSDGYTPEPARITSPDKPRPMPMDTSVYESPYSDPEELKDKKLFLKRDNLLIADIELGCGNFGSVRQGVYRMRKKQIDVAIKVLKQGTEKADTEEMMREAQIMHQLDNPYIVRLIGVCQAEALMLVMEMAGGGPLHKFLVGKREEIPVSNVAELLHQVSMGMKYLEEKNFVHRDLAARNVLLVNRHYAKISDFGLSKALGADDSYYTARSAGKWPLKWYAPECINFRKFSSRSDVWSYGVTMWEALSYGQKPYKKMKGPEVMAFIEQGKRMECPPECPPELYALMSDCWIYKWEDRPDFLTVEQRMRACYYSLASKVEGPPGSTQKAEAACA

IRAK4 (human), sequence (Q9NWZ3 whole entry, looked up): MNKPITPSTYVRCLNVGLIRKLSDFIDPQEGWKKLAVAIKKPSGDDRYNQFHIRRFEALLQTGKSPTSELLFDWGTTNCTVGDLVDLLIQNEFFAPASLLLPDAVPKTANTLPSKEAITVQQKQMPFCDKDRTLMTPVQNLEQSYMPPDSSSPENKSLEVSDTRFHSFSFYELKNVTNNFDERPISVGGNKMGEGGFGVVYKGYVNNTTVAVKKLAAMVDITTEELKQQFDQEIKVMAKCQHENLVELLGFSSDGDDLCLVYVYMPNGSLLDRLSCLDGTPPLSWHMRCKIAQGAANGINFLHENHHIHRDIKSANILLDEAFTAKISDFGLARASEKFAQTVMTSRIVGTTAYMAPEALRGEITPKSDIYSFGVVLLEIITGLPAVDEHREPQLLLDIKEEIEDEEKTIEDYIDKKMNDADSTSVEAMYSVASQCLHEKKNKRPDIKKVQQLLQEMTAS
IKBKE (human), sequence (Q14164 whole entry, looked up): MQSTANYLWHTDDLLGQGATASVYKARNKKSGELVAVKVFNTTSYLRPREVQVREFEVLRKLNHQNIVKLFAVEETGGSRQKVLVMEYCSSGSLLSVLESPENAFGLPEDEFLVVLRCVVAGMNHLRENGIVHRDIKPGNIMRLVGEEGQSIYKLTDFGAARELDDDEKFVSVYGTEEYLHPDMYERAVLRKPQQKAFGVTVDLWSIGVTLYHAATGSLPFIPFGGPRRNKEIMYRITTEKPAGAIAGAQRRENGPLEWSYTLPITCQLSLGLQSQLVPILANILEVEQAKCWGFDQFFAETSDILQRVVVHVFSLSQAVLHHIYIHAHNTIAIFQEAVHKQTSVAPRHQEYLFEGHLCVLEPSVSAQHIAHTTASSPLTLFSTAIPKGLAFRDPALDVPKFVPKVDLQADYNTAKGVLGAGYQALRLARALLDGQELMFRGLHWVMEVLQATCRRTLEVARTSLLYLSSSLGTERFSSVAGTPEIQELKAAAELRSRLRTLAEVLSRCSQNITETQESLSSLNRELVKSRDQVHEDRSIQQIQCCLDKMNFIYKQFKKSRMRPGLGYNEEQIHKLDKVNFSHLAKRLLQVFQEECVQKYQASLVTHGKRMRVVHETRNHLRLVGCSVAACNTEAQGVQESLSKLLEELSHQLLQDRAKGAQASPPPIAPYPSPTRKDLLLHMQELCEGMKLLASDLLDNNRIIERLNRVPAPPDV
GSK3B (human), sequence (P49841 whole entry, looked up): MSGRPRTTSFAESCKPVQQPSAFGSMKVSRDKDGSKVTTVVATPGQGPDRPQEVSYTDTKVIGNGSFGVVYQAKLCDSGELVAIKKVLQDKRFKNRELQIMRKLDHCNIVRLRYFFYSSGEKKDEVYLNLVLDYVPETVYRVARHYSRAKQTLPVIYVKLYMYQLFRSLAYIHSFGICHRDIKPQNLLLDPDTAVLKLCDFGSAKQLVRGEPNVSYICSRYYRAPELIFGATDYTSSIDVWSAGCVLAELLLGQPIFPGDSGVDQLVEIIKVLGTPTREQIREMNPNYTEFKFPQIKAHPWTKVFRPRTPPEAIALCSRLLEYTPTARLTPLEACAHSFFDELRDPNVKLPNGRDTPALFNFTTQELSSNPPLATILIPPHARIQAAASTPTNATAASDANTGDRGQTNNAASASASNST
CDK9 CCNT1 (human), sequence (O60563 whole entry, looked up): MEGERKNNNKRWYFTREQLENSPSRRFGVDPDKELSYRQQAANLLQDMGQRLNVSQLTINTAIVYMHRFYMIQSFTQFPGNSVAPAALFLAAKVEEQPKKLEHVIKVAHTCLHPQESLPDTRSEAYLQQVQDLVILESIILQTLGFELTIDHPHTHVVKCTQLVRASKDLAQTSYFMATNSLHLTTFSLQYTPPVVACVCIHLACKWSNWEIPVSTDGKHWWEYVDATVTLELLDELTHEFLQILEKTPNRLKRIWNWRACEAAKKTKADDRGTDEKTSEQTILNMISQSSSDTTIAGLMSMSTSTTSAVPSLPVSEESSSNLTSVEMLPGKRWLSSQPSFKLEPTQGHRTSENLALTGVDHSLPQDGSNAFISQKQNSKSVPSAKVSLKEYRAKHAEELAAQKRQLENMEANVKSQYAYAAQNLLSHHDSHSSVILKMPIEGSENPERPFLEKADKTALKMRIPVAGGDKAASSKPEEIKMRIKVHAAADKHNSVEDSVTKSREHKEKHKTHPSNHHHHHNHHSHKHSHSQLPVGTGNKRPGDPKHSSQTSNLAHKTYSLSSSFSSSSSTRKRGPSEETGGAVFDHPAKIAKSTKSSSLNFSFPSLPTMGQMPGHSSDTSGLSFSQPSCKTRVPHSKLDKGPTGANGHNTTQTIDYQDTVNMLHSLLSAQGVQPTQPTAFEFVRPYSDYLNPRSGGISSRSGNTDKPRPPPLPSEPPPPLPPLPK
CDK9 CCNT1 (human), sequence (P50750 whole entry, looked up): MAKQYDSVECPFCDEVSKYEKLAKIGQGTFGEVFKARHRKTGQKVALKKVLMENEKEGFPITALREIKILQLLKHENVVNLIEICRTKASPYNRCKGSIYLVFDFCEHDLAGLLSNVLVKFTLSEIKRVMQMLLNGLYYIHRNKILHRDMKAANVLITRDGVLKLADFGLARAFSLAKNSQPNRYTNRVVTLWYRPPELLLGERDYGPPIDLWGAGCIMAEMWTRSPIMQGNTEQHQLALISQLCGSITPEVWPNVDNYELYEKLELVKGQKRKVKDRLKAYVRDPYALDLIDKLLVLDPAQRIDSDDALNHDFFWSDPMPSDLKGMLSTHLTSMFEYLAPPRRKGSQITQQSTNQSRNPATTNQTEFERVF
SRPK1 (human), sequence (Q96SB4 whole entry, looked up): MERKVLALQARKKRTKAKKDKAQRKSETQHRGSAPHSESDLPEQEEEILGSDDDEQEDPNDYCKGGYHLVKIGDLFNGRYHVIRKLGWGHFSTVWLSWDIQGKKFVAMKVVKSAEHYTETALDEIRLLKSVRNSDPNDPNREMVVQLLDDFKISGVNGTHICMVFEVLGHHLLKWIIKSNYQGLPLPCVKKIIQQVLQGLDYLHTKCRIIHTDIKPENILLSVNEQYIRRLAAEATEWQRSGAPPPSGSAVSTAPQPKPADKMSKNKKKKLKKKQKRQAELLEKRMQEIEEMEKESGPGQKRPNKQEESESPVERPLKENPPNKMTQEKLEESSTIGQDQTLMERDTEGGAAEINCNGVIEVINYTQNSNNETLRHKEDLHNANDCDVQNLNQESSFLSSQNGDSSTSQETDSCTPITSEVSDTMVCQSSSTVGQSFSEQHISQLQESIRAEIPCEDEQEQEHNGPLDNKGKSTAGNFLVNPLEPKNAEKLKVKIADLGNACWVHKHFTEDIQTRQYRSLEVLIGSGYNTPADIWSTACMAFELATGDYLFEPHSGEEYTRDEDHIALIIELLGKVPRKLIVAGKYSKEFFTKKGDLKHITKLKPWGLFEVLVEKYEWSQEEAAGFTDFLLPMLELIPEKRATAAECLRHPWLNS
PKN1 (human), sequence (Q16512 whole entry, looked up): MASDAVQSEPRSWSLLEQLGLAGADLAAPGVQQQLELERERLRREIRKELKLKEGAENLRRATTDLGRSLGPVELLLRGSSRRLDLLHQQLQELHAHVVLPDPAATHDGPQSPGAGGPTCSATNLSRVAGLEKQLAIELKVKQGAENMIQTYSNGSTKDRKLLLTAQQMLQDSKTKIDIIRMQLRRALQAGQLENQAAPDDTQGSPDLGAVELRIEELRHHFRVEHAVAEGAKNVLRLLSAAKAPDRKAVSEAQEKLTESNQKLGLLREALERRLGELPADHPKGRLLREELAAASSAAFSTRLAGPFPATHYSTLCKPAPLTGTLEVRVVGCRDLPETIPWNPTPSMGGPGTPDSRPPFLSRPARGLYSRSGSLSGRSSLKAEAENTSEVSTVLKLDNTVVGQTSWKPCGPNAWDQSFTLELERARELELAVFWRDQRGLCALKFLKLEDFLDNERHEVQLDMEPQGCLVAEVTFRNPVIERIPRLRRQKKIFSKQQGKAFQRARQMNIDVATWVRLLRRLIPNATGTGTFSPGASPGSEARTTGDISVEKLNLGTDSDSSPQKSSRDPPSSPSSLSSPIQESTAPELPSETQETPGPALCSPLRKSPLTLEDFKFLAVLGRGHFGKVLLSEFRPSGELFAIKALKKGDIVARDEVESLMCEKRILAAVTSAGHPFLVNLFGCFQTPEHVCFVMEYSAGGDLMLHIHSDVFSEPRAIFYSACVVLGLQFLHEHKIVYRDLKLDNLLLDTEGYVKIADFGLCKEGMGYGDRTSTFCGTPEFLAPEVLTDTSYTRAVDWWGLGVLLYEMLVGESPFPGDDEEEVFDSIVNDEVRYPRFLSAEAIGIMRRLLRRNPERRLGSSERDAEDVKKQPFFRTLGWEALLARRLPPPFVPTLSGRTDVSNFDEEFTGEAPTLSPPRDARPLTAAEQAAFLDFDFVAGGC

Q: How did the inhibition ([1]; compound 0.1 µM) turn out when `Cn1cc(-c2cnc3ccc4ccc(CC(=O)NCc5ccccn5)cc4c(=O)c3c2)cn1` was run?
A: 12.8%

Q: And the inhibition ([1]; compound 1.0 µM)?
A: 12.6%

Q: What about the inhibition ([1]; compound 10.0 µM) of the same molecule?
A: 10.1%

Q: What about the inhibition ([2]; compound 0.1 µM) of the same molecule?
A: 12.3%

Q: And the inhibition ([2]; compound 1.0 µM)?
A: 13.5%

Q: And the inhibition ([2]; compound 10.0 µM)?
A: -0.3%

Q: What about the inhibition ([3]; compound 0.1 µM) of the same molecule?
A: 13.6%

Q: What about the inhibition ([3]; compound 1.0 µM) of the same molecule?
A: 10.4%

Q: And the inhibition ([3]; compound 10.0 µM)?
A: 0.8%

Q: And the inhibition ([4]; compound 0.1 µM)?
A: 17%

Q: What about the inhibition ([4]; compound 1.0 µM) of the same molecule?
A: 18.6%

Q: And the inhibition ([4]; compound 10.0 µM)?
A: 18.3%

Q: And the inhibition ([5]; compound 0.1 µM)?
A: 6.6%

Q: What about the inhibition ([5]; compound 1.0 µM) of the same molecule?
A: 6.7%

Q: What about the inhibition ([5]; compound 10.0 µM) of the same molecule?
A: 14.5%

Q: And the inhibition ([6]; compound 0.1 µM)?
A: 1%

Q: What about the inhibition ([6]; compound 1.0 µM) of the same molecule?
A: 6.4%

Q: And the inhibition ([6]; compound 10.0 µM)?
A: 11.8%

Q: And the inhibition ([7]; compound 0.1 µM)?
A: 9.4%

Q: What about the inhibition ([7]; compound 1.0 µM) of the same molecule?
A: 4.4%

Q: And the inhibition ([7]; compound 10.0 µM)?
A: 10.8%

Q: And the inhibition ([8]; compound 0.1 µM)?
A: 11.8%

Q: What about the inhibition ([8]; compound 1.0 µM) of the same molecule?
A: 17.1%

Q: What about the inhibition ([8]; compound 10.0 µM) of the same molecule?
A: 43.6%

Q: And the inhibition ([9]; compound 0.1 µM)?
A: 9.2%

Q: And the inhibition ([9]; compound 1.0 µM)?
A: 22.8%

Q: And the inhibition ([9]; compound 10.0 µM)?
A: 69.8%

Q: And the inhibition ([10]; compound 0.1 µM)?
A: 5.1%

Q: And the inhibition ([10]; compound 1.0 µM)?
A: 4.8%

Q: What about the inhibition ([10]; compound 10.0 µM) of the same molecule?
A: 13.3%

Q: What about the inhibition ([11]; compound 0.1 µM) of the same molecule?
A: 24.6%

Q: And the inhibition ([11]; compound 1.0 µM)?
A: 59.7%

Q: And the inhibition ([11]; compound 10.0 µM)?
A: 80%

Q: And the inhibition ([12]; compound 0.1 µM)?
A: 12.9%

Q: And the inhibition ([12]; compound 1.0 µM)?
A: 11.9%

Q: And the inhibition ([12]; compound 10.0 µM)?
A: 37.1%

Q: What about the inhibition ([13]; compound 0.1 µM) of the same molecule?
A: 7.3%

Q: And the inhibition ([13]; compound 1.0 µM)?
A: 8.1%

Q: What about the inhibition ([13]; compound 10.0 µM) of the same molecule?
A: 64%

Q: What about the inhibition ([14]; compound 0.1 µM) of the same molecule?
A: 16.4%

Q: And the inhibition ([14]; compound 1.0 µM)?
A: 15.3%

Q: And the inhibition ([14]; compound 10.0 µM)?
A: 16.7%

Q: What about the inhibition ([15]; compound 0.1 µM) of the same molecule?
A: 7.5%

Q: And the inhibition ([15]; compound 1.0 µM)?
A: 7%

Q: And the inhibition ([15]; compound 10.0 µM)?
A: 8.6%

Q: What about the inhibition ([16]; compound 0.1 µM) of the same molecule?
A: 19.8%

Q: What about the inhibition ([16]; compound 1.0 µM) of the same molecule?
A: 25.5%

Q: And the inhibition ([16]; compound 10.0 µM)?
A: 59%

Q: And the inhibition ([17]; compound 0.1 µM)?
A: 7.6%

Q: And the inhibition ([17]; compound 1.0 µM)?
A: 12.3%

Q: What about the inhibition ([17]; compound 10.0 µM) of the same molecule?
A: 9.4%

Q: What about the inhibition ([18]; compound 0.1 µM) of the same molecule?
A: 19.9%

Q: And the inhibition ([18]; compound 1.0 µM)?
A: 25.4%

Q: What about the inhibition ([18]; compound 10.0 µM) of the same molecule?
A: 54.3%

Q: And the inhibition ([19]; compound 0.1 µM)?
A: 12.7%

Q: And the inhibition ([19]; compound 1.0 µM)?
A: 8.8%

Q: What about the inhibition ([19]; compound 10.0 µM) of the same molecule?
A: -8.1%

Q: And the inhibition ([20]; compound 0.1 µM)?
A: 15.7%

Q: And the inhibition ([20]; compound 1.0 µM)?
A: 9.8%

Q: What about the inhibition ([20]; compound 10.0 µM) of the same molecule?
A: -56.3%

Q: What about the inhibition ([21]; compound 0.1 µM) of the same molecule?
A: 3.3%

Q: What about the inhibition ([21]; compound 1.0 µM) of the same molecule?
A: 9.3%

Q: And the inhibition ([21]; compound 10.0 µM)?
A: 25.4%

Q: And the inhibition ([22]; compound 0.1 µM)?
A: 12.2%

Q: What about the inhibition ([22]; compound 1.0 µM) of the same molecule?
A: 13.6%

Q: And the inhibition ([22]; compound 10.0 µM)?
A: -14.2%

Q: What about the inhibition ([23]; compound 0.1 µM) of the same molecule?
A: 12.8%

Q: And the inhibition ([23]; compound 1.0 µM)?
A: 14.8%

Q: What about the inhibition ([23]; compound 10.0 µM) of the same molecule?
A: 53.5%

Q: What about the inhibition ([24]; compound 0.1 µM) of the same molecule?
A: 6.4%

Q: And the inhibition ([24]; compound 1.0 µM)?
A: 7.8%

Q: And the inhibition ([24]; compound 10.0 µM)?
A: 18.9%

Q: What about the inhibition ([25]; compound 0.1 µM) of the same molecule?
A: 11.1%

Q: And the inhibition ([25]; compound 1.0 µM)?
A: 11.5%

Q: What about the inhibition ([25]; compound 10.0 µM) of the same molecule?
A: 12.5%

Q: And the inhibition ([26]; compound 0.1 µM)?
A: 10.9%

Q: What about the inhibition ([26]; compound 1.0 µM) of the same molecule?
A: 7%

Q: What about the inhibition ([26]; compound 10.0 µM) of the same molecule?
A: -17.5%

Q: What about the inhibition ([27]; compound 0.1 µM) of the same molecule?
A: 15.5%

Q: What about the inhibition ([27]; compound 1.0 µM) of the same molecule?
A: 11.4%

Q: And the inhibition ([27]; compound 10.0 µM)?
A: 24.9%

Q: And the inhibition ([28]; compound 0.1 µM)?
A: 18.4%

Q: What about the inhibition ([28]; compound 1.0 µM) of the same molecule?
A: 17.4%

Q: What about the inhibition ([28]; compound 10.0 µM) of the same molecule?
A: 15.2%
